The values below come from ChEMBL document CHEMBL1201862, “PubChem BioAssay data set” (2004).

Each structure is given as a SMILES string. “And” between values parts separate entries of the source, which are not always exact repeats. Equal values may be shown once. The source made the active and inactive calls.

For data set [1], the target named is Cytochrome P450 2D6 (Homo sapiens, UniProt P10635).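 Also: CYP2D6 member of a cytochrome P450 panel assay.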
The target of data set [2] is Cytochrome P450 3A4 (Homo sapiens, UniProt P08684).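 Also: CYP3A4 tested as one member of a cytochrome P450 panel screen.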
Data set [3] addresses Cytochrome P450 2C9 (Homo sapiens, UniProt P11712).
Data set [4] deals with Cytochrome P450 2C19 (Homo sapiens, UniProt P33261). In words: Cytochrome panel assay with activity outcomes. Panel member name: p450-cyp2c19 Compounds with AC50 equal or less than 10 uM are considered active. It counts as functional.
Data set [5] is described as follows: NIH3T3 cell viability loss – ATP luminescence, mouse fibroblasts, counter-screen, dose response (AID 2010).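 Also: cells exposed to compound for about 90 hours before reading.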 It is filed as functional, cell-based. For orientation: Counterscreens check selectivity or assay interference.
The nature of data set [6]: Trypanosoma cruzi growth suppression in host cells – NIH3T3 host cells, beta-gal luminescence, confirmation (AID 2044).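 Also: intracellular parasites grown in NIH/3T3 mouse fibroblasts as host cells; luminescent beta-galactosidase reporter signal from transgenic T. cruzi replicating inside host cells; inhibitors lower the luminescence signal.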 It is filed as functional, cell-based.
Data set [7] concerns INS1. In words: INS-1E survival protection against cytokine death – cell-based, luminescence, retest, dose response (AID 449756).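 Also: cell death triggered by IL-1 beta plus TNF-alpha plus IFN-gamma mixture; protective hits raise ATP signal compared with cytokine alone wells.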 The following applies: Rattus norvegicus. It counts as functional.
Data set [8] concerns Streptococcus sp. 'group A'. Nature of the data set: Streptococcus pyogenes SK(-)GAS viability under kanamycin – luminescence, BacTiterGlo, confirmation, counter-screen for streptokinase expression inhibitor project, dose response (AID 1900). It is filed as functional, organism-based.
Data set [9] has as its system Streptococcus. Nature of the data set: GAS UMAA2166 growth inhibition – luminescence, BacTiterGlo, counter-screen for streptokinase expression inhibitor project, dose response (AID 1915).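 Also: potency for reduction of bacterial viability or growth.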 It is filed as functional, organism-based.

Cytochrome P450 2C19, sequence (P33261 whole entry): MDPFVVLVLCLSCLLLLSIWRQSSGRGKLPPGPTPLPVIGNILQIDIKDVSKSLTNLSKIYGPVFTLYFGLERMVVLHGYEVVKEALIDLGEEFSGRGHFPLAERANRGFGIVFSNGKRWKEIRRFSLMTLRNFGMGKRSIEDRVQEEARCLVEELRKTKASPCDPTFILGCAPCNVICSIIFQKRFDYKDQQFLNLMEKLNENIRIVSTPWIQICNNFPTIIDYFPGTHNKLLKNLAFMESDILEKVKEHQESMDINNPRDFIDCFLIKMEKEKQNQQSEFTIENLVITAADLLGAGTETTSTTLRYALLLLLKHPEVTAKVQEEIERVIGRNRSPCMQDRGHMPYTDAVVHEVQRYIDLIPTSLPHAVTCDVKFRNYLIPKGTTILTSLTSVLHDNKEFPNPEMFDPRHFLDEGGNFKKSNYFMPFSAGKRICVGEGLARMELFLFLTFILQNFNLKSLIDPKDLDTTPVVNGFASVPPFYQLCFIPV
Cytochrome P450 3A4, sequence (P08684 whole entry): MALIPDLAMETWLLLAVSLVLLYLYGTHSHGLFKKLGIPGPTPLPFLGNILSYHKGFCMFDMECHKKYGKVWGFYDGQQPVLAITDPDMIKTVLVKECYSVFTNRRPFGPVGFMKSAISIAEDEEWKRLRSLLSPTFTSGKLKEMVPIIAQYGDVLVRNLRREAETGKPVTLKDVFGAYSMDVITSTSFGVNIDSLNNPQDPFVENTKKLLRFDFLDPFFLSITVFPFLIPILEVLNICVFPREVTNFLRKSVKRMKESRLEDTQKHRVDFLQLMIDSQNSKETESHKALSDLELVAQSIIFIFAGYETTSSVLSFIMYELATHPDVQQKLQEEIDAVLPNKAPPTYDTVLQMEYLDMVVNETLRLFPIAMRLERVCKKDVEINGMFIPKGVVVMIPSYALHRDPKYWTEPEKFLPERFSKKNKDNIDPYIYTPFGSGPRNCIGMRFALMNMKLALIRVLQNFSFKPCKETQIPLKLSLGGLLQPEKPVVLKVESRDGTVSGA
Cytochrome P450 2D6, sequence (P10635 whole entry): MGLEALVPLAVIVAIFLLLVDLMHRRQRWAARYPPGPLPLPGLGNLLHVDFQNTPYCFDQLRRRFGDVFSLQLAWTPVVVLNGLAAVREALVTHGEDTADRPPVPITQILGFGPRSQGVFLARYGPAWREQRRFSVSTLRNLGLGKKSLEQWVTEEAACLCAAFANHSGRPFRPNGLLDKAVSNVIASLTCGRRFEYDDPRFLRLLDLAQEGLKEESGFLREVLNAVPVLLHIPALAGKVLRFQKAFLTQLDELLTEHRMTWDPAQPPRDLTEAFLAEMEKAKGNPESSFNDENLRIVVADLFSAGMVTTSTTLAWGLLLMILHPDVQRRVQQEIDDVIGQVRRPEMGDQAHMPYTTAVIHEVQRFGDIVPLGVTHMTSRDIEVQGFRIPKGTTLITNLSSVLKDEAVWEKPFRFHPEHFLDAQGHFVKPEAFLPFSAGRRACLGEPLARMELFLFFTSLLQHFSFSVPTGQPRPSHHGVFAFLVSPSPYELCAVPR
Cytochrome P450 2C9, sequence (P11712 whole entry): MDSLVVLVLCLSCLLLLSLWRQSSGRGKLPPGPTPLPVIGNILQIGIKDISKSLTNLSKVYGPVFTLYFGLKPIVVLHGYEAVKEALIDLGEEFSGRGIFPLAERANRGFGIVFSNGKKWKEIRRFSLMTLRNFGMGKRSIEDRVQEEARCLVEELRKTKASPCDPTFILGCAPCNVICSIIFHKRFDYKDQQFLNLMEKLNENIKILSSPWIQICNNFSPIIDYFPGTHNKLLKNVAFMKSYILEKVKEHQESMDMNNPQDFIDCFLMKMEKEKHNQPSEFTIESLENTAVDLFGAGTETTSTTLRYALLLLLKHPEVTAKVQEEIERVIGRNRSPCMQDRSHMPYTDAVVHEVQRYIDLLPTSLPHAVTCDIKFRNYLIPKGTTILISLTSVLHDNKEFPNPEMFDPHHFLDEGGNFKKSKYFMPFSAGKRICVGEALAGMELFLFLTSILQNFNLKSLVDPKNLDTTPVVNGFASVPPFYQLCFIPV

In general, AC50 refers to the concentration giving half of the maximal activity seen. On to `CCOC(=O)c1c(-c2ccccc2)csc1NC(=O)c1cccc(N2C(=O)CCC2=O)c1`, for which the AC50 in [1] was 0.0112 µM (inconclusive). With `COc1cc(CN2CCN(C(=O)COc3ccccc3)CC2)cc(OC)c1OC`, the AC50 in data set [2] and in data set [3] was 22.4 µM (inconclusive) in each case. With `Cc1cnc(CNc2ncncc2-c2ccccc2CN(C)C)cn1`, in [1], the AC50 was 39.8 µM (inconclusive). On to `O=C(Cn1ccc2ccccc2c1=O)N1CCN(c2cccc(Cl)c2)CC1`, for which the AC50 in data set [2] is 3.16 µM (inconclusive); in data set [4] (read-out: AC50), 7.08 µM (inconclusive).

In the case of `Cc1noc(C)c1-c1nccc(NCc2ccccc2)n1`, the AC50 in [1] is 39.8 µM (inconclusive).

The term EC50 denotes the midpoint of the concentration-response curve. In the case of `Cc1ccc(C)c(N2CCN(CC(=O)Nc3ccc([N+](=O)[O-])cc3C(=O)Nc3ccccc3F)CC2)c1`, the EC50 is > 60 µM (not active) in [5] and 1190 nM (active) in [6].

With `CS(=O)(=O)N1CCC2(CCCN(Cc3ccc(C#N)cc3)C2)CC1`, the AC50 in [1] was 20 µM (inconclusive).

Consider `CC1=CC(=C(C#N)c2nc3ccccc3s2)C=C(C)N1Cc1ccco1`, for which the values for the EC50 in [5] and in data set [6] were > 30 µM (not active) and 1750 nM (active), respectively. On to `N#Cc1c(C(F)(F)F)cc(-c2ccco2)nc1SCc1ccncc1`, for which the half-maximal effective concentration (EC50) in [5] is 4.74 µM (active); in [6] it was 975 nM (active). In the case of `O=C(CSc1ccccc1)Nc1ccc(N2CCN(c3ccccc3)CC2)c(F)c1`, the AC50 in [4] (read-out: AC50) is 39.8 µM (inconclusive); in [3], 0.447 µM (inconclusive).

Regarding `c1ccc(-c2nc3ccccc3o2)nc1`, the AC50 in data set [3] is 39.8 µM (inconclusive). Consider `O=[N+]([O-])c1nn(-c2ccccc2)[n+]([O-])c1NCCc1ccccc1`, for which the figures for the EC50 in [5] and in data set [6] were > 60 µM (inconclusive) and 478 nM (active), respectively.

As for `COC1=CC(=O)O[C@@H](/C=C\c2ccccc2)C1`, the AC50 in [4] (read-out: AC50) was 5.01 µM (inconclusive). Take `O=c1c2cc(Br)ccc2[nH]c(=S)n1Cc1cccnc1`: the values for the AC50 in data set [1] and in data set [3] were 8.91 µM (inconclusive) and 12.6 µM (inconclusive), respectively. As for `COc1ccc(Cn2c(-c3ccc(Br)cc3)c[n+]3ccccc23)cc1`, the figures for the EC50 in [5] and in data set [6] were > 30 µM (not active) and 822 nM (active), respectively.

For the molecule `O=C(CCCn1cnc([N+](=O)[O-])n1)Nc1ccc(Cl)cc1Cl`, the EC50 was > 60 µM (inconclusive) in [5] and 132 nM (active) in [6].

With `Cc1ccc(S(=O)ON2CCC(C(=O)O)(c3ccccc3)CC2)cc1` (stereo not drawn), the AC50 entry in data set [4] was “inconclusive”.

As to `C[n+]1ccc(/C=C/c2ccc(Br)cc2)cc1`, the AC50 in data set [4] (read-out: AC50) is 3.98 µM (inconclusive).

Consider `CCOC(=O)c1cnc(-n2nc(C)cc2C)nc1Nc1ccc(O)cc1`, for which the AC50 in data set [7] was 1.67 µM (active).

In the case of `O=C(c1ccncc1)N1CCC[C@@]2(CCN(Cc3nccs3)C2)C1`, the AC50 in data set [1] was 20 µM (inconclusive). As for `Cn1c(=O)c(-c2ccc(F)c(F)c2)nc2cncnc21`, the concentration at half-maximal activity (AC50) in data set [2] was 20 µM (inconclusive). Take `CS(=O)(=O)N1CCC[C@@]2(CCN(C(=O)Nc3cccc(C#N)c3)C2)C1`: the AC50 in data set [2] was 20 µM (inconclusive). As to `CCS(=O)(=O)c1ccc2c(c1)N(S(=O)(=O)c1ccccc1)CC(C(=O)O)O2` (stereo not drawn), in [3], the AC50 was 12.6 µM (inconclusive). For `CC(=O)N1N=C(c2cccc([N+](=O)[O-])c2)OC1c1ccccc1Cl` (stereo not drawn), the AC50 in data set [2] was 39.8 µM (inconclusive). In the case of `O=C(O)C/C(=C\c1ccco1)C(=O)O`, in data set [4], the AC50 result is on record as “inconclusive”. `CCOC(=O)c1c(NC(=O)C2=C(C)N=C(S)NC2c2ccccc2C(F)(F)F)sc(C)c1C` (stereo not drawn): the EC50 was > 60 µM (not active) in data set [5] and 2400 nM (active) in data set [6]. Turning to `Nc1ncnc2c1cnn2-c1ccccc1`, the AC50 in [4] (read-out: AC50) was 4.47 µM (inconclusive).

`OC(COC(c1ccc(F)cc1)c1ccc(F)cc1)CN1CCc2ccccc2C1` (stereo not drawn): the AC50 in data set [7] is 18.2 µM (active). `Cc1cnc(CNc2cc(-c3ccccc3CN(C)C)ncn2)cn1`: in [1], the AC50 is 12.6 µM (inconclusive). Take `Cc1cc(N/N=C/c2cccc(Cl)c2)nc(-n2nc(C)cc2C)n1`: the values for the EC50 in data set [8] and in data set [9] were 1.34 µM (active) and 1.61 µM (active), respectively. The AC50 in data set [7] was 2.69 µM (active). Turning to `O=C(CN1C(=O)COc2ccccc21)N(Cc1cccnc1)Cc1cccc(F)c1`, the results for the EC50 in data set [5] and in data set [6] were > 60 µM (not active) and 557 nM (active), respectively. Consider `Cc1cc2nc(SCCOC(=O)Nc3ccc(Cl)cc3)nc(C)c2cc1C`, for which the AC50 in data set [3] was 2.82 µM (inconclusive). In the case of `COc1cccc(NC(=S)N2CCn3cccc3C2c2cccnc2)c1` (stereo not drawn), the values for the EC50 in data set [5] and in data set [6] were > 60 µM (not active) and 1120 nM (active), respectively. Turning to `Cc1ccc(-c2csc(NC(=O)c3c(C)noc3C)n2)s1`, the AC50 in data set [7] was 3.99 µM (active). On to `CCN(CC)CCN(C(=O)c1ccc(S(=O)(=O)N(C)C2CCCCC2)cc1)c1nc2ccc(OC)cc2s1`, for which the EC50 in [5] was > 60 µM (not active); in data set [6], 105 nM (active). `CCN1CCN(CCC(=O)Nc2cccc(OC)c2)CC1.Cl`: the AC50 result in data set [4] was “inconclusive”.

As for `COCC1CCCCN1Cc1c[nH]nc1-c1ccc2cc(OC)ccc2c1` (stereo not drawn), the EC50 in data set [5] is > 60 µM (not active); in data set [6] it was 679 nM (active). As for `COC(=O)[C@@]1(Cc2ccc(OC)cc2)[C@@H]2[C@@H](CC(=O)[C@H]2CC(=O)C(=O)N2CCCC2)CN1C(=O)c1ccccc1`, the half-maximal activity concentration (AC50) in data set [4] (read-out: AC50) is 25.1 µM (inconclusive); in data set [3], 20 µM (inconclusive). Consider `C#CCn1c(S(=O)(=O)Cc2ccc(OC)cc2)nc(-c2ccccc2)c1-c1ccccc1`, for which the AC50 in data set [1] was 14.1 µM (inconclusive). In the case of `CSc1nsc(SC)c1C(=O)Nc1ccc(C)cc1`, the AC50 in [3] is 15.8 µM (inconclusive). For `CCOc1ccc(N(CC(=O)NCCC2=CCCCC2)S(=O)(=O)c2ccccc2)cc1`, the EC50 is 10.6 µM (active) in data set [5] and 2580 nM (active) in data set [6]. Take `CCOC(=O)C1=C(CCc2ccccc2)NC(=O)NC1c1ccc2ccccc2c1` (stereo not drawn): the half-maximal activity concentration (AC50) in [7] is 31.5 µM (active). With `O=C(c1ccco1)N1CCC[C@@]2(CCN(Cc3ccccc3)C2)C1`, the AC50 in data set [2] is 20 µM (inconclusive). For `Fc1ccc(N=C(S)NCCc2ccccc2)c(F)c1F`, the half-maximal activity concentration (AC50) in data set [1] is 15.8 µM (inconclusive). On the same count and under the same terms, as for `COC(=O)[C@@]1(Cc2ccccc2)[C@H]2c3cc(C(=O)N(C)C)n(Cc4cc(C)n(C)n4)c3C[C@H]2CN1C(=O)c1ccccc1`, the figure is 39.8 µM (inconclusive). Turning to `CC(=O)OC[C@@H]1O[C@H](C/C=N\O[C@@H](C)c2cn([C@H](CO)Cc3ccccc3)nn2)C=C[C@@H]1OC(C)=O`, in [2], the AC50 was 5.01 µM (inconclusive) and 3.98 µM (inconclusive). On to `CCN(C(=O)c1cc2c(O)nc3ccc(C)cc3c2s1)c1cccc(C)c1`, for which the figures for the EC50 in [5] and in data set [6] were > 60 µM (inconclusive) and 708 nM (active), respectively. For `Clc1ccc(-c2nnc(-c3cccc4ccccc34)o2)cc1Cl`, in data set [4], the AC50 entry is listed as “inconclusive”. Consider `c1ccc(CNc2cc(-c3ccoc3)ncn2)cc1`, for which, in data set [2], the AC50 is 12.6 µM (inconclusive). In the case of `O=C1CN(c2nc(-c3cccnc3)nc3scc(-c4ccccc4)c23)CCN1`, the EC50 in data set [5] was 59.3 µM (active); in data set [6], 4670 nM (active). For the molecule `FC(F)(F)c1cccc(CN2CCC(c3cc(-c4cccs4)[nH]n3)CC2)c1`, the EC50 was 14.6 µM (active) in [5] and 2310 nM (active) in data set [6]. Consider `c1cc(CCN2CCCCC2)ccn1`, for which, in data set [2], the AC50 was 6.31 µM (inconclusive).

Take `Cc1ccc2c(c1)N(CC(=O)N1CCCCC1c1cccnc1)C(=O)CO2` (stereo not drawn): the concentration for a half-maximal effect (EC50) was > 60 µM (not active) in data set [5] and 482 nM (active) in data set [6].

In the case of `Cc1cc(C(C)(C)C)cc(CNC2CCCCC2)c1O`, the AC50 in data set [3] was 7.94 µM (inconclusive). Take `O=C(c1csnn1)N1CCC2(CC1)CCN(c1ccncc1)CC2`: the AC50 was 15.8 µM (inconclusive) in data set [2], 39.8 µM (inconclusive) in data set [4] (read-out: AC50) and 15.8 µM (inconclusive) in data set [3]. Consider `Cc1ccc(-n2nnnc2Sc2nc([N+](=O)[O-])nn2C)cc1C`, for which the AC50 in [3] was 1.58 µM (inconclusive).

For the molecule `Fc1ccc(CN(C2=NCCN2)c2c(Cl)cccc2Cl)cc1`, the AC50 in data set [3] was 39.8 µM (inconclusive). For the molecule `O=C(CSc1nnc(-c2ccncc2)n1Cc1ccccc1)Nc1nccs1`, the AC50 in [1] was 17.8 µM (inconclusive). On to `O=c1c(-c2ccc(Cl)cc2)nc2cnc(N3CCNCC3)nc2n1CCc1ccccc1`, for which, in data set [2], the AC50 is 31.6 µM (inconclusive).

`Cc1cc(C)c(S(=O)(=O)c2ccc(F)cc2C)c(Cl)n1`: the EC50 in data set [5] is > 60 µM (not active); in data set [6], 867 nM (active). Turning to `C[C@@H]1O[C@@H](O)[C@@H](O)[C@H](O)[C@H]1O`, the AC50 entry in [4] is “inconclusive”. For `CCN1C(=O)C(CC(=O)Nc2ccc(OC)cc2)N(Cc2cccnc2)C1=S` (stereo not drawn), the AC50 in data set [3] is 10 µM (inconclusive). `C=C(CC1(C(C)NP(=O)(c2ccccc2)c2ccccc2)CC1)c1ccccc1` (stereo not drawn): the AC50 in [1] is 39.8 µM (inconclusive).

`C=CC1=C[C@@H](O)C2OC2C12OCCCO2` (stereo partly drawn): the half-maximal activity concentration (AC50) result in data set [4] is recorded as “inconclusive”. Consider `O=C(COc1ccc([N+](=O)[O-])cc1)N[N-][C+]1CCCC1`, for which the results for the AC50 in data set [4] (read-out: AC50) and in data set [3] were 1.78 µM (inconclusive) and 0.0251 µM (inconclusive), respectively. As for `CCC(=O)Nc1ccc(C(=O)CSc2nnc(-c3ccc(O)cc3)n2CC2CCCO2)cc1OC` (stereo not drawn), the AC50 in data set [3] is 15.8 µM (inconclusive).
